Experimental data published in patent publication US20230146455A1, “TREATMENT OF INFLAMMATORY DISEASES WITH PEPTIDES AND PHARMACEUTICAL COMPOSITIONS” (Yuyu Pharma, Inc., priority 2020, published 2023).
Values joined by “and” are separate entries in the source; they are usually repeats but may differ in a detail not shown here. Identical values can stand only once. Where a SMILES comes first, the peptide text is derived from it. [ ]: non-standard residue; d: D form. Hyp = O=C(O)[C@@H]1C[C@@H](O)CN1

Assays:
CCL3/MIP-1 alpha = experiment: Example 8 main study Luminex, LPS hPBMCs: CCL3/MIP-1 alpha; format: cell-based, human; conditions: for LPS-induced CCL-3 (in words): at as low as 5 μM, LPS 5 ug/mL 24 hrs
Procedure: (§1) Human PBMCs were pretreated with YY-101, YDE-011, YDE-043 or reference compound; Xiidra® at various concentration (ranging from […] to 500 nM) for 2 h before stimulation. An equal volume of 0.5% DMSO was used as a vehicle control. Then, the cells were treated with LPS at 5 ug/ml, which was selected based on the pilot study. The supernatants from treated cells were harvested at 24 h and placed in a 96 well for Luminex cytokine & chemokine profiling using a Luminex 200 multiplex assay (Luminex; R&D system, USA).
(§2) The main study arm with triplicate wells per group in a 24-well plate: • 1. Blank • 2. PBMC: 0.5% DMSO • 3. PBMC+LPS (5 ug/ml) • 4. PBMC+YY-101 500 nM • 5. PBMC+YY-101 50 nM • 6. PBMC+YY-101 5 nM • 7. PBMC+YY-101 0.5 nM • 8. PBMC+LPS (5 ug/ml)+Xiidra® 500 nM • 9. PBMC+LPS (5 ug/ml)+Xiidra® 50 nM • 10. PBMC+LPS (5 ug/ml)+Xiidra® 5 nM • 11. PBMC+LPS (5 ug/ml)+Xiidra® 0.5 nM • 12. PBMC+LPS (5 ug/ml)+Xiidra® 0.05 nM • 13. PBMC+LPS (5 ug/ml)+Xiidra® 0.005 nM • 14. PBMC+LPS (5 ug/ml)+YY-101 500 nM • 15. PBMC+LPS (5 ug/ml)+YY-101 50 nM • 16. PBMC+LPS (5 ug/ml)+YY-101 5 nM • 17. PBMC+LPS (5 ug/ml)+YY-101 0.5 nM • 18. PBMC+LPS (5 ug/ml)+YY-101 0.05 nM • 19. PBMC+LPS (5 ug/ml)+YY-101 0.005 nM • 20. PBMC+LPS (5 ug/ml)+YDE-011 500 nM • 21. PBMC+LPS (5 ug/ml)+YDE-011 50 nM • 22. PBMC+LPS (5 ug/ml)+YDE-011 5 nM • 23. PBMC+LPS (5 ug/ml)+YDE-011 0.5 nM • 24. PBMC+LPS (5 ug/ml)+YDE-011 0.05 nM • 25. PBMC+LPS (5 ug/ml)+YDE-011 0.005 nM • 26. PBMC+LPS (5 ug/ml)+YDE-043 500 nM • 27. PBMC+LPS (5 ug/ml)+YDE-043 50 nM • 28. PBMC+LPS (5 ug/ml)+YDE-043 5 nM • 29. PBMC+LPS (5 ug/ml)+YDE-043 0.5 nM • 30. PBMC+LPS (5 ug/ml)+YDE-043 0.05 nM • 31. PBMC+LPS (5 ug/ml)+YDE-043 0.005 nM
(§3) Multiplex assay was used to measure 30 cytokines and chemokines. The 1:200 diluted cell supernatant and serial dilution of the standard were dispensed into a 96 well plate at 50 ul/well. Then, the pre-mixed cocktail of antibody-coated magnetic beads was dispensed at 50 ul/well and incubated at room temperature for 2 h in a horizontal orbital microplate shaker at 800±500 rpm. The beads were washed using a magnetic device to prevent loss. The biotin-antibody was dispensed in 50 ul of each well and incubated at room temperature for 1 h in a shaker at 800±500 rpm. After washing, streptavidin-PE was added at 50 ul/well and incubated at room temperature for 30 min in a shaker under the same conditions. Finally, after washing, wash buffer (100 ul/well) was added to the plate and incubated in a shaker for 2 min. The Luminex™ 200 setting were set according to the manufacturer's protocol. The data was calculated with a standard five-parameter logistic nonlinear regression analysis of the data (xPonent software 4.2, USA). Results were presented as concentration (ng/ml or pg/ml).

TIMP-1 = experiment: Example 8 main study Luminex, LPS hPBMCs: TIMP-1; format: cell-based, human; conditions: PBMC + LPS(5 ug/ml)
Procedure: as §1, §2, §3

[1] = PBMC + LPS(5 ug/ml) + test article 0.005 nM, Mean
[2] = PBMC + LPS(5 ug/ml) + test article 0.005 nM, single replicates
[3] = PBMC + LPS(5 ug/ml) + test article 0.05 nM, Mean
[4] = PBMC + LPS(5 ug/ml) + test article 0.05 nM, single replicates
[5] = PBMC + LPS(5 ug/ml) + test article 0.5 nM, Mean
[6] = PBMC + LPS(5 ug/ml) + test article 0.5 nM, single replicates
[7] = PBMC + LPS(5 ug/ml) + test article 5 nM, Mean
[8] = PBMC + LPS(5 ug/ml) + test article 5 nM, single replicates
[9] = PBMC + LPS(5 ug/ml) + test article 50 nM, Mean
[10] = PBMC + LPS(5 ug/ml) + test article 50 nM, single replicates
[11] = PBMC + LPS(5 ug/ml) + test article 500 nM, Mean
[12] = PBMC + LPS(5 ug/ml) + test article 500 nM, single replicates

SMILES | CCL3/MIP-1 alpha Concentration (CCL3/MIP-1 alpha; [1]) [pg/mL] | CCL3/MIP-1 alpha MFI (CCL3/MIP-1 alpha; [1]) | CCL3/MIP-1 alpha Concentration (CCL3/MIP-1 alpha; [2]) | CCL3/MIP-1 alpha MFI (CCL3/MIP-1 alpha; [2]) | CCL3/MIP-1 alpha Concentration (CCL3/MIP-1 alpha; [3]) [pg/mL] | CCL3/MIP-1 alpha MFI (CCL3/MIP-1 alpha; [3]) | CCL3/MIP-1 alpha Concentration (CCL3/MIP-1 alpha; [4]) | CCL3/MIP-1 alpha MFI (CCL3/MIP-1 alpha; [4]) | CCL3/MIP-1 alpha Concentration (CCL3/MIP-1 alpha; [5]) [pg/mL] | CCL3/MIP-1 alpha MFI (CCL3/MIP-1 alpha; [5]) | CCL3/MIP-1 alpha Concentration (CCL3/MIP-1 alpha; [6]) | CCL3/MIP-1 alpha MFI (CCL3/MIP-1 alpha; [6]) | CCL3/MIP-1 alpha Concentration (CCL3/MIP-1 alpha; [7]) [pg/mL] | CCL3/MIP-1 alpha MFI (CCL3/MIP-1 alpha; [7]) | CCL3/MIP-1 alpha Concentration (CCL3/MIP-1 alpha; [8]) | CCL3/MIP-1 alpha MFI (CCL3/MIP-1 alpha; [8]) | CCL3/MIP-1 alpha Concentration (CCL3/MIP-1 alpha; [9]) [pg/mL] | CCL3/MIP-1 alpha MFI (CCL3/MIP-1 alpha; [9]) | CCL3/MIP-1 alpha Concentration (CCL3/MIP-1 alpha; [10]) | CCL3/MIP-1 alpha MFI (CCL3/MIP-1 alpha; [10]) | further results
CC(C)C[C@H](NC(=O)CNC(=O)[C@H](CC(C)C)NC(=O)[C@H](CCC(N)=O)NC(=O)CNC(=O)[C@@H]1C[C@@H](O)CN1)C(=O)N[C@@H](C)C(=O)NCC(=O)N1CCC[C@H]1C(=O)N[C@@H](CCCCN)C(=O)O [YDE-011] (H-[Hyp]GQLGLAGPK-OH) | 30631.2 | 40.8 | 31818.4 pg/mL and 28790.7 pg/mL and 31284.6 pg/mL | 43.0 and 37.5 and 42.0 | 34293.4 | 47.8 | 34390.9 pg/mL and 32865.8 pg/mL and 35623.4 pg/mL | 48.0 and 45.0 and 50.5 | 30465.1 | 40.5 | 31284.6 pg/mL and 29639.8 pg/mL and 30470.7 pg/mL | 42.0 and 39.0 and 40.5 | 27362.3 | 35.2 | 25497.0 pg/mL and 26119.3 pg/mL and 30470.7 pg/mL | 32.0 and 33.0 and 40.5 | 28334.6 | 37.3 | 32865.8 pg/mL and 21122.8 pg/mL and 31015.1 pg/mL | 45.0 and 25.5 and 41.5 | CCL3/MIP-1 alpha Concentration (CCL3/MIP-1 alpha; [11]): 27851.5 pg/mL; CCL3/MIP-1 alpha MFI (CCL3/MIP-1 alpha; [11]): 36.8; CCL3/MIP-1 alpha Concentration (CCL3/MIP-1 alpha; [12]): 34390.9 pg/mL and 19244.9 pg/mL and 29918.7 pg/mL; CCL3/MIP-1 alpha MFI (CCL3/MIP-1 alpha; [12]): 48.0 and 23.0 and 39.5; LPS-induced CCL-3 (in words) (CCL3/MIP-1 alpha): significantly reduced; TIMP-1 Concentration (pg/ml), Mean (TIMP-1; test article 0.005 nM): 4036.4 pg/mL; TIMP-1 Concentration (pg/ml), single replicates (TIMP-1; test article 0.005 nM): 4259.2 pg/ml (2×) and 3590.9 pg/ml; TIMP-1 Concentration (pg/ml), Mean (TIMP-1; test article 0.05 nM): 4288.3 pg/mL; TIMP-1 Concentration (pg/ml), single replicates (TIMP-1; test article 0.05 nM): 4414.6 pg/mL and 3590.9 pg/mL and 4859.3 pg/mL; TIMP-1 Concentration (pg/ml), Mean (TIMP-1; test article 0.5 nM): 4080.2 pg/mL; TIMP-1 Concentration (pg/ml), single replicates (TIMP-1; test article 0.5 nM): 3590.9 pg/mL and 3935.4 pg/mL and 4714.4 pg/mL; TIMP-1 Concentration (pg/ml), Mean (TIMP-1; test article 5 nM): 4128.5 pg/mL; TIMP-1 Concentration (pg/ml), single replicates (TIMP-1; test article 5 nM): 4859.3 pg/mL and 3935.4 pg/mL and 3590.9 pg/mL; TIMP-1 Concentration (pg/ml), Mean (TIMP-1; test article 50 nM): 4253.6 pg/mL; TIMP-1 Concentration (pg/ml), single replicates (TIMP-1; test article 50 nM): 3935.4 pg/mL and 4259.2 pg/mL and 4566.3 pg/mL; TIMP-1 Concentration (pg/ml), Mean (TIMP-1; test article 500 nM): 3820.5 pg/mL; TIMP-1 Concentration (pg/ml), single replicates (TIMP-1; test article 500 nM): 3935.4 pg/ml (2×) and 3590.9 pg/ml
CC(C)C[C@H](NC(=O)[C@H](CCC(N)=O)NC(=O)CNC(=O)[C@@H]1C[C@@H](O)CN1)C(=O)NCC(=O)O [YDE-043] (H-[Hyp]GQLG-OH; N-terminus and C-terminus assumed) | 38526.9 | 57.3 | 32345.4 pg/mL and 37296.1 pg/mL and 45939.1 pg/mL | 44.0 and 54.0 and 74.0 | 29535.1 | 38.8 | 28213.9 pg/ml and 30195.7 pg/ml (2×) | 36.5 and 40.0 (2×) | 30000.1 | 39.7 | 29639.8 pg/mL and 31284.6 pg/mL and 29075.9 pg/mL | 39.0 and 42.0 and 38.0 | 31809.4 | 43.0 | 31818.4 pg/mL and 32865.8 pg/mL and 30743.9 pg/mL | 43.0 and 45.0 and 41.0 | 31754.6 | 43.0 | 33380.1 pg/ml (2×) and 28503.4 pg/ml | 46.0 (2×) and 37.0 | CCL3/MIP-1 alpha Concentration (CCL3/MIP-1 alpha; [11]): 28096.2 pg/mL; CCL3/MIP-1 alpha MFI (CCL3/MIP-1 alpha; [11]): 36.3; CCL3/MIP-1 alpha Concentration (CCL3/MIP-1 alpha; [12]): 28503.4 pg/mL and 26426.3 pg/mL and 29358.9 pg/mL; CCL3/MIP-1 alpha MFI (CCL3/MIP-1 alpha; [12]): 37.0 and 33.5 and 38.5; LPS-induced CCL-3 (in words) (CCL3/MIP-1 alpha): significantly reduced; TIMP-1 Concentration (pg/ml), Mean (TIMP-1; test article 0.005 nM): 4681.6 pg/mL; TIMP-1 Concentration (pg/ml), single replicates (TIMP-1; test article 0.005 nM): 3935.4 pg/mL and 5543.0 pg/mL and 4566.3 pg/mL; TIMP-1 Concentration (pg/ml), Mean (TIMP-1; test article 0.05 nM): 4088.2 pg/mL; TIMP-1 Concentration (pg/ml), single replicates (TIMP-1; test article 0.05 nM): 4259.2 pg/mL and 4414.6 pg/mL and 3590.9 pg/mL; TIMP-1 Concentration (pg/ml), Mean (TIMP-1; test article 0.5 nM): 4203.1 pg/mL; TIMP-1 Concentration (pg/ml), single replicates (TIMP-1; test article 0.5 nM): 4259.2 pg/mL and 4414.6 pg/mL and 3935.4 pg/mL; TIMP-1 Concentration (pg/ml), Mean (TIMP-1; test article 5 nM): 4463.9 pg/mL; TIMP-1 Concentration (pg/ml), single replicates (TIMP-1; test article 5 nM): 4566.3 pg/ml (2×) and 4259.2 pg/ml; TIMP-1 Concentration (pg/ml), Mean (TIMP-1; test article 50 nM): 4351.3 pg/mL; TIMP-1 Concentration (pg/ml), single replicates (TIMP-1; test article 50 nM): 3935.4 pg/mL and 4859.3 pg/mL and 4259.2 pg/mL; TIMP-1 Concentration (pg/ml), Mean (TIMP-1; test article 500 nM): 4299.5 pg/mL; TIMP-1 Concentration (pg/ml), single replicates (TIMP-1; test article 500 nM): 4566.3 pg/ml (2×) and 3766.0 pg/ml
